In patent US11376224B2, “System for delivery of FK506 for enhancing nerve regeneration” (THE HOSPITAL FOR SICK CHILDREN, priority 2016, dated 2022):

Assay: FK506 tissue concentrations (organ exposure) by mass spectrometry after drug delivery system implantation
Format: in vivo, Sprague-Dawley rats
Description: FK506 was detectable within the proximal injured sciatic nerve, DRGs (L4, L5), the entire spinal cord, and the muscles surrounding the nerve repair site, decreasing in concentration over time. FK506 content within the tissues was determined using mass spectrometry. (Mean±standard deviation, n=4).
Thirty adult female Sprague-Dawley rats were randomized into five groups (n=6). The experimental group included rats treated with fibrin gel loaded with FK506 by incorporating 10 microliters solubilized FK506 in acetonitrile (2 milligrams per milliliter), 200 micrograms solid FK506 particulates, or 5 milligrams of FK506 containing microspheres into the thrombin solution before it was mixed with fibrinogen to form a gel.
During the procedure, the sciatic nerve was exposed and the main branches were dissected. The tibial (TIB) nerve was transected 5 millimeters distal to its bifurcation from the common peroneal (CP) nerve and sural nerves with fine microsurgical scissors. The proximal TIB nerve stump was cross-sutured to the distal stump of a cut CP nerve. In the groups receiving the fibrin gel based drug delivery system, the nerve suture site was surrounded by two 40 microliters of the fibrin gels (containing applicable components for each group) formed by pipetting the fluid fibrin mixture onto a Parafilm sheet as semi-rectangular drops (˜5×5 millimeters) and placing the drops above and below the repair site. By gently opposing the drops, the delivery system was secured around the nerve. Three weeks after repair, the number of neurons that regenerated their axons were determined using retrograde labeling 7 millimeter distal to the repair site. Nerve samples at the location of retrograde labeling were collected for histomorphometric analysis. Using mass spectrometry, FK506 tissue concentrations were analyzed at the site of the injury, in sciatic nerve, dorsal root ganglia (DRGs), spinal cord, brain, heart, liver, kidney, and plasma at 7, 14, and 28 days post repair.

[1] = first week of drug release in vivo (7 days)

C=CC[C@@H]1/C=C(\C)C[C@H](C)C[C@H](OC)[C@H]2O[C@@](O)(C(=O)C(=O)N3CCCC[C@H]3C(=O)O[C@H](/C(C)=C/[C@@H]3CC[C@@H](O)[C@H](OC)C3)[C@H](C)[C@@H](O)CC1=O)[C@H](C)C[C@@H]2OC [FK506]
FK506 levels in sciatic nerve, gluteal muscles, spinal cord, kidney (at 14 days): barely detectable levels | FK506 within the DRGs (L4, L5) (at 14 days): accumulation | FK506 within the DRGs (L4, L5) (at 28 days): undetectable | FK506 levels in sciatic nerve, gluteal muscles, spinal cord, kidney (by 28 days): undetectable levels | FK506 in contralateral sciatic nerve, contralateral gluteal muscles, contralateral L4-L5 DRGs (entire period of the treatment): did not contain any FK506 | FK506 in plasma, brain, liver, or heart (entire study period): not detectable | FK506 in entire spinal cord [1]: highest level | FK506 in gluteal muscles surrounding the nerve [1]: detected | FK506 in proximal injured sciatic nerve [1]: detected
